Measured values: patent US20230190851A1, “PLANT COMPOUNDS FOR TREATING ALZHEIMER'S DISEASE” (RRW B.V., priority 2020, published 2023)

Test system: C. elegans nematode strain with inducible amyloid-β accumulation (CL4176)
Assay: Alzheimer's disease paralysis assay, C. elegans strain with inducible amyloid-β accumulation
Type: in vivo
Conditions: strain CL4176, heat shock 25° C., counted approximately every 24 h; combination effect after 71 h, persisted for 95 h
Excerpt: These strains accumulate amyloid-β peptides that form plaques in the nematodes and lead to paralysis of the animals. In certain strains, such as strain CL4176, Aβ accumulation occurs only in response to heat shock. Thus, the Alzheimer's disease pattern is inducible in these strains. The number of paralyzed nematodes after a certain period of time following induction of Aβ accumulation indicates the extent of Alzheimer's disease. Thus, the effect of certain substances to which the nematodes are exposed on the number of paralyzed animals is a measure of the anti-Alzheimer effect of these substances.
Nematodes of strain CL4176 were synchronized at the young larval stage and allowed to grow to the L4 stage on normal growth medium for 72 h at 16° C. Then the nematodes were exposed to the test substance and the temperature was increased to 25° C. This heat shock induced Aβ accumulation, simulating the onset of Alzheimer's disease. Approximately every 24 h, the number of animals that were still mobile and those that were paralyzed as a result of Aβ accumulation was determined.

`C=C(C)[C@@H]1CCC(C)=C[C@H]1c1c(O)cc(CCCCC)cc1O` [CBD, cannabidiol] was tested, and the “number of mobile / paralyzed animals after induction of Aβ accumulation” value was “only little effect”.
